Results reported in patent US9834534B2, “Neuraminidase inhibitor compounds, compositions and methods for the use thereof in anti-viral treatments” (THE UNIVERSITY OF BRITISH COLUMBIA, priority 2009, dated 2017).

What was measured:
Fukui H3N2 E119V = assay type: cell-based, influenza A virus
[1] = tested on: B/Florida E119D (B/Florida/4/2006 mutant 1 E117D); assay type: cell-based, influenza B virus
sH1N1/01 H274Y = assay type: cell-based, influenza A virus; settings: read-out: IC50 sH1N/01 H274Y
Sol Isl sH1N1 E119A = assay type: cell-based, influenza A virus
sH1N1/08 H274Y = assay type: cell-based, influenza A virus
Auckland pH1N1 E119K = assay type: cell-based, influenza A virus; settings: pH 1
B/Perth D197E = assay type: cell-based, influenza B virus; settings: read-out: sensitivity to inhibitors, B/Perth D197E

| Structure (SMILES) | IC50 (Fukui H3N2 E119V) [µM] | IC50 [1] [µM] | IC50 (sH1N1/01 H274Y) [µM] | IC50 (Sol Isl sH1N1 E119A) [µM] | IC50 (sH1N1/08 H274Y) [µM] | IC50 (Auckland pH1N1 E119K) [µM] | IC50 (B/Perth D197E) [µM] |
| --- | --- | --- | --- | --- | --- | --- | --- |
| CCOC(=O)C1=C[C@@H](OC(CC)CC)[C@H](NC(C)=O)[C@@H](N)C1 [Oseltamivir] | 260 | 1.21 | 2.44 | 0.419 | 2 | 0.147 |  |
| CC(=O)NC1C(NC(=N)N)C(F)C(F)(C(=O)O)OC1[C@H](O)[C@H](O)CO (stereo partly drawn) [4-G3Feq diF SA, 5-Acetamido-2,4,5-trideoxy-2α, 3β-difluoro-4-guanidino-α-D-erythro-L-gluco-nonulopyranosonate] | 2.4 |  | 0.0435 |  |  | […] | 0.008 |
| CC(=O)N[C@H]1[C@H]([C@H](O)[C@H](O)CO)OC(C(=O)O)=C[C@@H]1N=C(N)N [Zanamivir, reference compound] | 3.4 | > 10 |  | > 10 | 0.002 | > 100 | 0.258 |
| CC(=O)N[C@@H]1C(NC(=N)N)C(F)[C@](F)(C(=O)O)OC1[C@H](O)[C@H](O)CO (stereo partly drawn) [Compound 12, (2R,3R)-4-Guanyl-2,4-dideoxy-2,3-difluorosialic acid] | […] |  | 0.217 | […] |  | […] | 0.162 |
